The record followed here is patent publication US20160030364A1, “Therapeutic Compositions and Uses Thereof” (MANUKA HEALTH NEW ZEALAND LIMITED, priority 2013, published 2016).

SMILES strings stand for the structures.

What all share (format): cell-based
Assay [1] concerns human oesophageal squamous cell carcinoma cell line (KYSE-30). The experiment in a line: MTT anti-proliferative assay, KYSE-30 (Examples 3-13).
Assay [2] concerns human gastric carcinoma cell line (NCI-N87). The experiment in a line: MTT anti-proliferative assay, NCI-N87 (Examples 3-12). The settings on record: for % inhibition / % stim. / Mean OD (570 nm) / inhibition at 200 µg/mL: 200 μg/ml; for % inhibition / % stim. / Mean OD (570 nm): 48 hours. The protocol: (§1) 5-phenylpenta-2,4-dienoic acid was assessed for its ability to modulate the viability and proliferation of human colorectal adenocarcinoma cells (DLD-1); human colon cancer cell line (HCT-116); human gastric carcinoma cell line (NCI-N87); and human oesophageal squamous cell carcinoma cell line (KYSE-30) as assessed by the MTT assay. The positive control, 5-fluorouracil (5-FU) was included at three concentrations; in addition to an unsupplemented cell control as a negative control in the study. The 5-phenylpenta-2,4-dienoic acid was a genuine standard with chemical structure confirmed by NMR and MS.
(§2) The four human gastrointestinal carcinoma cell lines were revived from cryostorage and cultured in the presence of the test and reference samples. An MTT assay was then performed on the cultures to determine the effect of the samples on the cell viability and proliferation.
(§3) The test sample 5-phenylpenta-2,4-dienoic acid, and all other test samples in Examples 4-12 (except tectochrysln) were Initially dissolved in pure ethanol to a concentration of around 13.35 mg/ml. Tectochrysin was initially dissolved in triethylene glycol mono-methyl ether to the same concentration. Working solutions were then prepared from the stock solutions by dilution to 15% ethanol/Hanks Balanced Salt Solution (ETOH)/HBSS to a concentration of 2 mg/mL solids. In the assay the final concentration of the samples was 200 μg/ml with a final EtOH concentration of 1.5%. Final concentrations of test compounds and propolis prepared as above are as noted in Example 3.
(§4) • 1. Human colorectal adenocarcinoma cells (ATCC CCI-221, DLD-1)(ATCC, Bethesda, Md., USA) • 2. Human gastric carcinoma cells (ATCC CRL-5822, NCI-N87)(ATCC, Bethesda, Md., USA) • 3. Human oesophageal squamous cell carcinoma (ECACC, KYSE-30)(Sigma Aldrich, Auckland, NZ) • 4. Human colon carcinoma cells (ECACC HCT-116)(Sigma Aldrich, Auckland, NZ) • 5. Penicillin-streptomycin solution: 10000 units/ml penicillin, 10 mg/ml streptomycin in 0.9% NaCl (Sigma Cat #P-0781). Stored at −20° C. • 6. For DLD-1 cells: DMEM culture medium (Invitrogen Cat #12100-046). Stored at 4° C. • 7. For NCI-N87 cells: RPMI-1640 medium modified to contain 2 mM L-glutamine, 10 mM HEPES, 1 mM sodium pyruvate, 4500 mg/L glucose, and 1500 mg/L sodium bicarbonate (Sigma R6504). Stored at 4° C. • 8. For KYSE-410 cells: RPMI-1640 medium modified to contain 2 mM L-glutamine (Sigma R6504). Stored at 4° C. • 9. For HCT-116 cells: McCoy's 5A medium modified to contain 2 mM L-glutamine (Sigma M48792). Stored at 4° C. • 10. Trypsin-EDTA solution: 0.25% Trypsin/EDTA, Invitrogen Cat#15400054 (×10 in stock). • 11. Phosphate buffered saline (PBS) (Prepared by TBL). • 12. Hanks Balanced Salt Solution (HBSS). (GIBCO Cat No. 14185-052). Stored at 4° C. • 13. Foetal Bovine Serum (GIBCO Cat #10091-148). Stored at −20° C. • 14. MTT Reagent: 100 mg/vial, (SIGMA Cat. No. M-2128) dissolved in PBS at 10 mg/ml and stored at −20° C. 5 mg/ml MTT solution will be prepared in PBS and stored at 4° C. as working solution. • 15. MTT lysis buffer: 10% sodium dodecyl sulphate (SDS)/45% Dimethyl Formamide (20 g SDS will be dissolved in 100 ml of double-distilled water (DDW), and 90 ml of Dimethyl Formamide will be added to the SDS solution). The pH will be adjusted to 4.7 by glacial acetic acid, and DDW added up to a final volume of 200 ml. • 16. 5-Fluorouracil (5-FU), (Sigma Cat. No. F-6627). Three working solutions will be prepared at 19.5 μg/ml. 6.5 μg/ml and 1.95 μg/ml dissolved in 15% Ethanol/HBSS. Final concentrations will be 1.95 μg/ml (15 μM), 0.65 μg/ml (5 μM) and 0.195 μg/ml (1.5 μM).
(§5) The medium for the propagation of the each of the cells lines is given above. Each medium was prepared following the ATCC/ECACC instructions and supplemented with penicillin-streptomycin solution (10 ml per litre). FBS (at 10%) was added just before use.
• 1. […]
(Tetrazolium assays rely on reduction of a dye to a coloured formazan, in cell work by metabolically active cells.)

Assay [3] concerns human colorectal adenocarcinoma cells (DLD-1). The experiment in a line: MTT anti-proliferative assay, DLD-1 (Examples 3-12). The settings on record: for % inhibition / % stim. / Mean OD (570 nm) / inhibition at 200 µg/mL: 200 μg/ml; for % inhibition / % stim. / Mean OD (570 nm): 48 hours. How it is done:
as §1, §2, §3, §4, §5
• 1. […]

Assay [4] concerns human oesophageal squamous cell carcinoma cell line (KYSE-30). The experiment in a line: MTT anti-proliferative assay, KYSE-30 (Examples 3-13). How it is done:
as §1, §2, §3, §4, §5
• 1. […]
This is another data set of the same source.

Setting [5] is: Examples 3-12, 200 μg/ml, 48 hours.
Where [6] appears, read: Homo sapiens, KYSE-30, 48 h, Examples 3-12, 200 μg/ml, 48 hours.

Usually inhibition stands for the relative decrease from the control value, in per cent. Turning to `O=c1[nH]cc(F)c(=O)[nH]1` [Sample 5-FU, 5-fluorouracil, reference compound], the inhibition at 0.65 µg/mL stood at 39.4% in assay [1] (Homo sapiens, KYSE-30, 48 h, Examples 3-12, 0.65 μg/ml, 48 hours); 17.2% in assay [2] (Homo sapiens, NCI-N87, 48 h, 0.65 μg/ml); 37.3% in assay [3] (Homo sapiens, DLD-1, 48 h, 0.65 μg/ml); 16.6% in assay [4] (Homo sapiens, KYSE-30, Example 13, 0.65 μg/ml). Further, the inhibition at 1.95 µg/mL in assay [1] (Homo sapiens, KYSE-30, 48 h, Examples 3-12, 1.95 μg/ml, 48 hours) was 47.5%; in assay [2] (Homo sapiens, NCI-N87, 48 h, 1.95 μg/ml) it was 16.2%; in assay [3] (Homo sapiens, DLD-1, 48 h, 1.95 μg/ml), 41.6%; in assay [4] (Homo sapiens, KYSE-30, Example 13, 1.95 μg/ml) it was 31.5%. For the same compound, the inhibition at 0.195 µg/mL in assay [2] (Homo sapiens, NCI-N87, 48 h, 0.195 μg/ml) stood at 7.52%; in assay [3] (Homo sapiens, DLD-1, 48 h, 0.195 μg/ml), 26.5%; in assay [4] (Homo sapiens, KYSE-30, 48 h, Examples 3-12, 0.195 μg/ml, 48 hours), 23.8%; in assay [4] (Homo sapiens, KYSE-30, Example 13, 0.195 μg/ml), 3.41%.
One may read the % inhibition as the percentage by which the read-out fell short of the control. Higher therefore signals a response far below the control. For `O=C(O)/C=C/c1ccc(O)cc1` [p-coumaric acid, para-coumaric acid, reference compound], the figures for the “% inhibition” value in assay [2] and in assay [3] were 17.31% and 14.34%, respectively. The “% stim.” value in assay [2], in assay [3] and in assay [4] (setting [5]) was 0% in each case. In addition, the “Mean OD (570 nm)” value came out at 0.3652 in assay [2], 0.3531 in assay [3] and 0.3243 in assay [4] (setting [5]). Besides, the inhibition at 200 µg/mL is 17.3% in assay [2] (Homo sapiens, NCI-N87, 48 h); 14.3% in assay [3] (Homo sapiens, DLD-1, 48 h); 46.1% in assay [4] (setting [6]).
`O=C1C[C@@H](c2ccccc2)Oc2cc(O)cc(O)c21` [Pinocembrin, reference compound]: in assay [1] (Example 13, 100 μg/ml), the “% inhibition” value was 50.26%. Besides, the “Mean OD (570 nm)” value in assay [1] (Example 13, 100 μg/ml) was 0.1668; in assay [2] it was 0.1214; in assay [3], 0.0341; in assay [4] (setting [5]), 0.0225. The compound further showed an inhibition at 100 µg/mL in assay [1] (Homo sapiens, KYSE-30, Example 13, 100 μg/ml) of 50.3%. For the same compound, the “% stim.” value in assay [2], in assay [3] and in assay [4] (setting [5]) was 0% each time. Further, the inhibition at 200 µg/mL in assay [2] (Homo sapiens, NCI-N87, 48 h) was 72.5%; in assay [3] (Homo sapiens, DLD-1, 48 h), 91.7%; in assay [4] (setting [6]), 96.3%.
Take `COc1cc(O)c2c(=O)cc(-c3ccccc3)oc2c1` [Tectochrysin, tectochrysin]: the “% inhibition” value was 54.0% in assay [2], 92.8% in assay [3] and 87.6% in assay [4] (setting [5]).
